Assay results from patent US9642831B2, “Substituted chromanes and method of use” (AbbVie S.á.r.l., priority 2014, dated 2017).

What was measured:
[1] = target: T1, F508delCFTR (Homo sapiens, UniProt P13569, DEL508-508); experiment: Transepithelial Clamp Circuit (TECC-24) conductance assay on primary human bronchial epithelial cells (hBE-TECC); assay type: cell-based; design: cells isolated from CF patients with the homozygous mutation; endogenous in cells; host or cells: primary human bronchial epithelial (hBE) cells from F508del/F508del CF patients; conditions: for EC50: primary hBE cells from F508del/F508delCFTR patients, corrector 18-24 hours at 37° C., equivalent short circuit current (Ieq), with control potentiator 1 μM; for Emax: relative to positive control (3 μM Example 1 coupled with control potentiator = 100%), primary hBE F508del/F508del cells, read-out: Maximum % activity (%)
From the text: Transepithelial Clamp Circuit on Human Bronchial Epithelial Cells Conductance Assay:
A cell based assay using the primary human bronchial epithelial cells (hBE) was used as a secondary assay to test novel F508delCFTR correctors for their activity on primary hBE cells with F508del/F508del CFTR mutation. The assay used a TECC-24 (Transepithelial Clamp Circuit for 24 wells) instrument that measures the functionality of the mutated channel by measuring the equivalent short circuit current (Ieq) generated by the polarized epithelial cells. The instrument works by measuring the transepithelial potential difference (Vt) and transepithelial resistance (Rt) in an open circuit format, and the Ieq is calculated by using Ohms law (Ieq=Vt/Rt). The assay was run in a 24-well format and all 24-wells were measured at the same time point giving a higher throughput for this assay.
Primary human bronchial epithelial (hBE) cells from F508del/F508delCFTR patients were expanded from 1×10^6 to 250×10^6 cells (Neuberger T, Burton B, Clark H and VanGoor F; Cystic Fibrosis, Methods in Mole Biol 741; eds. Amaral M D and Kunzelmann K, 2011). For this purpose, cells isolated from CF patients with the homozygous mutation were seeded onto 24 well Corning (Cat #3378) filter plates that were coated with 3T3 conditioned media and grown at an air-liquid interface for 35 days using an Ultroser® G supplemented differentiation media. Apical surface mucus was removed 72 hours before the experiment using 3 mM dithiothreitol (DTT) in phosphate buffered saline (PBS). The apical surface was washed again 24 hours before the experiment using PBS. The cells were incubated with the desired dose response of the corrector compounds 18-24 hours at 37° C., 5% CO2. The corrector compounds are only added on the basolateral side of the epithelial cells.
On the day of measuring the corrector activity on the TECC, the cells were switched into a bicarbonate and serum free F-12 Coon's medium and allowed to equilibrate for 90 minutes in a CO2 free incubator. At the time of measurement, the apical and basolateral sides of the filter were bathed with the F-12 Coon's modification media (with 20 mM 4-(2-hydroxyethyl)-1-piperazineethanesulfonic acid (HEPES), pH 7.4 (using 1 M tris(hydroxymethyl)aminormethane (Tris)), and the measurements were made at 36.5° C. Transepithelial voltage (Vt) and transepithelial resistance (Rt) were measured using a 24 channel transepithelial current clamp (TECC-24). Current responses to the sequential addition of benzamil (apical 6 μM addition; for inhibiting epithelial ENaC channel), forskolin (apical and basolateral 10 μM addition; for activating the CFTR channel), control potentiator (N-(3-carbamoyl-5,5,7,7-tetramethyl-4,7-dihydro-5H-thieno[2,3-c]pyran-2-yl)-1H-pyrazole-5-carboxamide; apical and basolateral 1 μM addition; for potentiating the CFTR channel) and bumetanide (basolateral 20 μM addition; for inhibiting the Na:2Cl:K co-transporter, an indirect measure of inhibiting the Cl-secretion driven by CFTR channel) were measured.
All plates contained negative controls (dimethyl sulfoxide, DMSO) which coupled with the control potentiator (N-(3-carbamoyl-5,5,7,7-tetramethyl-4,7-dihydro-5H-thieno[2,3-c]pyran-2-yl)-1H-pyrazole-5-carboxamide) sets the null response and positive controls (3 μM of 3-[(2R,4R)-4-({[1-(2,2-difluoro-1,3-benzodioxol-5-yl)cyclopropyl]carbonyl}amino)-7-methoxy-3,4-dihydro-2H-chromen-2-yl]benzoic acid) coupled with the control potentiator sets the 100% response to measure the correction of the mutated CFTR channel. The maximum percent activity is reported relative to the positive control value.
The % activity measured at each of the 6 test concentrations of the test compound was normalized to the on-plate positive control using the following formula: % activity=[(test compound response−DMSO response)/(positive control response−DMSO response)]*100 […]

[2] = system: CYP3A4; experiment: CYP3A4 induction in primary human hepatocytes (mRNA, RT-PCR); conditions: test compounds 10 μM, 48 hours, % of response of positive control (Rifampin 10 μM)
Method: Cryopreserved primary human hepatocytes were thawed and cultured overnight prior to treatment. […] Following the 48 hour treatment, hepatocytes were harvested for RNA isolation and reverse transcription, followed by CYP3A4 mRNA quantitation using RT-PCR (real time reverse transcript polymerase chain reaction).
Fold Induction=Fold of Treated/Fold of Vehicle Control % positive control=(Fold Induction of Treated−1)/(Fold Induction of Prototypical Inducer−1)

[3] = target: T1, F508delCFTR; experiment: Cell Surface Expression-Horse Radish Peroxidase (CSE-HRP) assay; assay type: cell-based; design: expressed in transfected cells; host or cells: CFBE41o- human lung derived epithelial cell line, doxycycline-inducible; conditions: CFBE4lo-F508delCFTR-HRP cells; for EC50: 18-24 hours at 33° C., 8-point curve, highest concentration 20 μM, luminescence readout; for Emax: maximum % activity at any tested concentration, normalized to on-plate positive control (3 μM Example 1)
How it was run: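 Following 18-24 h compound exposure at 33° C. Expression was doxycycline-induced beforehand. % activity versus DMSO and a 3 μM corrector control gave maximum activity and EC50 from a variable-Hill sigmoidal fit.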

T1 sequence (P13569 with tags, fused parts or gaps DEL508-508): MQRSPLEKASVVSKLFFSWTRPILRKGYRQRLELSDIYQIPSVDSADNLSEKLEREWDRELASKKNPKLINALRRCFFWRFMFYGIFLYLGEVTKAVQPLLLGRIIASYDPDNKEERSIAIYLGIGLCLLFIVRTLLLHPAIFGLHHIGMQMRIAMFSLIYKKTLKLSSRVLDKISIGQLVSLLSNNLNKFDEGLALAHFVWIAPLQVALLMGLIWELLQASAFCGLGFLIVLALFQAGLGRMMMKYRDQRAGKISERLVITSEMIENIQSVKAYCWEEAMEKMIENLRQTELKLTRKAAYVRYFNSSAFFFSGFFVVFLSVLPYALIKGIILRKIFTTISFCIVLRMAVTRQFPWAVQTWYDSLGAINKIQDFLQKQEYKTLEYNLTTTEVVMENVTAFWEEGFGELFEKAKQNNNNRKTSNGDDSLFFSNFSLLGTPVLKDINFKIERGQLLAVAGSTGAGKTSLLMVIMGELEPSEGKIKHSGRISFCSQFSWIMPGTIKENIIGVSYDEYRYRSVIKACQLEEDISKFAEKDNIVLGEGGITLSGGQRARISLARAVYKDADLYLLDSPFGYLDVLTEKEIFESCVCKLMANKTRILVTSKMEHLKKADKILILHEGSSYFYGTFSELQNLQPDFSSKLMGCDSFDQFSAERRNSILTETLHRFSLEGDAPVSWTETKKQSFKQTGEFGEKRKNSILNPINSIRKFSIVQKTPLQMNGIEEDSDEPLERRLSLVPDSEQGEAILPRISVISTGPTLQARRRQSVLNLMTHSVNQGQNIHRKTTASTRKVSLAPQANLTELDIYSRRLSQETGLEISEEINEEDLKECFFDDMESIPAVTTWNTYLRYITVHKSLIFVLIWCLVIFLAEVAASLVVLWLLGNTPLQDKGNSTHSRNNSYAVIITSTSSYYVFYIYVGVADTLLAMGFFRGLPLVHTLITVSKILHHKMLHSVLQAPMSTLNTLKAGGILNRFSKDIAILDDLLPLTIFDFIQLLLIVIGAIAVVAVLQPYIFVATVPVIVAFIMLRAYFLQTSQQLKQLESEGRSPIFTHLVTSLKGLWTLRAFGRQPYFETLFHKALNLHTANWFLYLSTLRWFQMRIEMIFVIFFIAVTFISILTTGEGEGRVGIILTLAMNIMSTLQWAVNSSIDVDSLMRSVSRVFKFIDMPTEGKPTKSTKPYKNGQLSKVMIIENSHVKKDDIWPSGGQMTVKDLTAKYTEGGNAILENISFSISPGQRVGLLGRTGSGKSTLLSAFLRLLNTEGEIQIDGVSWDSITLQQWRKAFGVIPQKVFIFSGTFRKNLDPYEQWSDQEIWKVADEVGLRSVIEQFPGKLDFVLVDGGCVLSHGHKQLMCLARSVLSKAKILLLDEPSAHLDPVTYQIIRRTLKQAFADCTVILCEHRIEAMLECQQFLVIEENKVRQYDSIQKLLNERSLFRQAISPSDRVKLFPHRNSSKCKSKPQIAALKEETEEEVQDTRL

With `COc1ccc2c(c1)O[C@@H](c1ccc(C(=O)O)cc1F)C[C@H]2NC(=O)C1(c2ccc3c(c2)OC(F)(F)O3)CC1` [Example 146, 4-[(2R,4R)-4-({[1-(2,2-difluoro-1,3-benzodioxol-5-yl)cyclopropyl]carbonyl}amino)-7-methoxy-3,4-dihydro-2H-chromen-2-yl]-3-fluorobenzoic acid] the EC50 [1] was 4 nM, the Emax [1] was 98% and the “CYP3A4 Hepatocytes mRNA % of positive control” value (“CYP3A4 Hepatocytes mRNA %” below) [2] was 11.6%. For the same compound, the EC50 [3] was 30 nM and the Emax [3] was 129%.

With `O=C(O)c1ccc([C@H]2C[C@@H](NC(=O)C3(c4ccc5c(c4)OC(F)(F)O5)CC3)c3ccc(OC(F)F)cc3O2)cc1` [Example 122, 4-[(2R,4R)-4-({[1-(2,2-difluoro-1,3-benzodioxol-5-yl)cyclopropyl]carbonyl}amino)-7-(difluoromethoxy)-3,4-dihydro-2H-chromen-2-yl]benzoic acid] the EC50 [1] was 4 nM, the Emax [1] was 87% and the “CYP3A4 Hepatocytes mRNA %” value [2] was 10.6%. It also gave an EC50 [3] of 26 nM and an Emax [3] of 122%.

With `COc1ccc2c(c1)O[C@@H](c1ccc(C(=O)O)cc1)C[C@H]2NC(=O)C1(c2ccc3c(c2)OC(F)(F)O3)CC1` [Example 111, 4-[(2R,4R)-4-({[1-(2,2-difluoro-1,3-benzodioxol-5-yl)cyclopropyl]carbonyl}amino)-7-methoxy-3,4-dihydro-2H-chromen-2-yl]benzoic acid] the EC50 [1] was 5 nM, the Emax [1] was 90% and the “CYP3A4 Hepatocytes mRNA %” value [2] was −0.105%. For the same compound, the EC50 [3] was 44 nM and the Emax [3] was 113%.

`O=C(O)C1CCCC([C@H]2C[C@@H](NC(=O)C3(c4ccc5c(c4)OC(F)(F)O5)CC3)c3ccc(C(F)(F)F)cc3O2)C1` (stereo partly drawn) [Example 109, 3-[(2R,4R)-4-({[1-(2,2-difluoro-1,3-benzodioxol-5-yl)cyclopropyl]carbonyl}amino)-7-(trifluoromethyl)-3,4-dihydro-2H-chromen-2-yl]cyclohexanecarboxylic acid] was tested, and the EC50 [1] was 55 nM, the Emax [1] was 70% and the “CYP3A4 Hepatocytes mRNA %” value [2] was 42.2%. The EC50 [3] was 450 nM and the Emax [3] was 94%.
